The structures appear in SMILES notation. Structures can show the parent of a compound that is named as a salt.

For the first test, the target named is T1, HIF-1α (Homo sapiens, UniProt Q16665).
T1 construct: endogenous in cells; host or cells: ARPE-19 (ATCC CRL-2302)
T1 sequence (Q16665 whole entry): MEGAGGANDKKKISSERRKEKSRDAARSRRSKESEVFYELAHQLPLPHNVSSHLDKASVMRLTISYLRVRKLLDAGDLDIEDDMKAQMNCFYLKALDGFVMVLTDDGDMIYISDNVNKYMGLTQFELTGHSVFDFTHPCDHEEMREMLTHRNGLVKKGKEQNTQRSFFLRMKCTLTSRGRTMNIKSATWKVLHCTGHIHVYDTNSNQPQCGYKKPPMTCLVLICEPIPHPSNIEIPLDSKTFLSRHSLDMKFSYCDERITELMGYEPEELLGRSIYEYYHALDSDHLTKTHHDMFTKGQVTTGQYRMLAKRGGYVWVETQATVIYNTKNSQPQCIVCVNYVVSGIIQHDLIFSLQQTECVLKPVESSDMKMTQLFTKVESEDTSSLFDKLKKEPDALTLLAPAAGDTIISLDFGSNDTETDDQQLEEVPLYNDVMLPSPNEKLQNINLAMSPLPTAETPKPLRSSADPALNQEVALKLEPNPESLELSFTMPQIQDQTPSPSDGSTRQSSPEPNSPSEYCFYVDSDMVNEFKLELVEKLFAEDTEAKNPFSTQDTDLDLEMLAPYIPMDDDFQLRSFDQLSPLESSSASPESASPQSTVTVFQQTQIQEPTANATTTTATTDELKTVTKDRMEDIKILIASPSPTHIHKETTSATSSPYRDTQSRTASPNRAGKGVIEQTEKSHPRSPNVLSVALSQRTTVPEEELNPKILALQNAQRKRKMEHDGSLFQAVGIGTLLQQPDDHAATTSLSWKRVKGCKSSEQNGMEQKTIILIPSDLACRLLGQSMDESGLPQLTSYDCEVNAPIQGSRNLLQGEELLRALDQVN
Put plainly: Analysis of HIF-1α protein expression (Western blot) in ARPE-19 cells under mixed hypoxic condition. The class given is cell-based. Conditions: mixed hypoxic condition (1% oxygen + CoCl2) for 1 hour, concentration range at which HIF-1α expression is reduced by 50% vs untreated control, read-out: IC50 HIF-1α Hypoxia (1 hour). The protocol:
ARPE-19 cells (Human retinal pigment epithelial cells, ATCC CRL-2302) were cultured in DMEM/F12 (LM002-08, Welgene) medium containing 10% fetal bovine serum (FBS, 16000-044, Gibco) in an incubator at 37°C with 5% carbon dioxide. When the cells grew sufficiently, they were cultured in experimental culture dishes for protein isolation and medium supernatant acquisition.
Cells were detached from the culture dish using TrypLE™ Express (Gibco). After centrifugation at 1000 rpm for 3 minutes, the supernatant was removed. The cells were counted and seeded into new culture dishes. Normoxic conditions were maintained by culturing the cells in a 37°C incubator with 5% carbon dioxide, and hypoxic conditions were maintained by culturing the cells in a hypoxic incubator with 1% oxygen, 5% carbon dioxide, and 94% nitrogen gas.
In a disease of macular degeneration, hypoxia is a very important condition, and since the expression of downstream genes is regulated by HIF-1α, a transcription factor that is stabilized in hypoxic conditions, the following experiment was conducted to confirm this.
Mixed hypoxic condition was used for HIF-1α stability experiments, in which hypoxia was induced with 1% oxygen and the stability of HIF-1α was enhanced by treatment with cobalt chloride (CoCl2).
The compounds of each Example were diluted to 0.1 nM, 1 nM, 3 nM, 10 nM, 30 nM, 100 nM, 300 nM, 1 µM, and 10 µM in DMEM/F12 medium without fetal bovine serum, pretreated for 16 hours or 2 hours, and cultured for 1 hour or 24 hours in a mixed hypoxic condition. The cell medium was discarded, and protein lysates were obtained by rapidly treating with protein lysis buffer (RIPA Lysis and Extraction buffer, Thermo Fisher Scientific). LDS (4X Bolt ™ LDS Sample buffer) and reducing agent (10X Bolt ™ Sample Reducing Agent) were added together to the protein lysate, and heated at 70°C for 10 minutes. The lysate was separated by electrophoresis on a 4-12% Bis-Tris gel, transferred to a PVDF membrane, and blocked with 3% BSA (Albumin, Bovine, Fraction V, MPbio). The membrane was incubated overnight at 4°C with a mixture of anti-HIF-1α (ab179483, abcam) and anti-b-actin (MA515739, Invitrogen) antibodies at a ratio of 1:4000. The following day, the membrane was treated with a peroxidase-conjugated secondary antibody for 1 hour at room temperature, and the target protein was expressed using an ECL solution (Clarity ™ Western ECL substrate, Bio-rad) and quantified.
Based on the results of the expression level of HIF-1α in cells treated with compounds diluted from 10 µM to 0.1 nM, the concentration range of the compound at which the expression level of HIF-1α was reduced by 50% or less compared to the untreated control group was derived.
As for `Cn1cc(-c2cccc(C3(NC(=O)c4ncnc5nc(C6CCCC6)[nH]c45)CC3)c2)cn1` [Example 6, 8-Cyclopentyl-N-(1-(3-(1-methyl-1H-pyrazol-4-yl)phenyl)cyclopropyl)-7H-purine-6-carboxamide], the DC50 lay in the range of 100 to 1000 nM.

Regarding `O=C(NCc1cc(F)cc(Br)c1)c1ncnc2nc(C3CCCC3)[nH]c12` [Example 14, N-(3-bromo-5-fluorobenzyl)-8-cyclopentyl-7H-purine-6-carboxamide], the DC50 lay within 100 to 1000 nM.

Turning to `C[Si](C)(C)CCOCn1c(C2CCCC2)nc2ncnc(C(=O)NCc3cc(F)cc(-c4cnn(-c5cccc(C#N)c5)c4)c3)c21` [Example 22, N-(3-(1-(3-cyanophenyl)-1H-pyrazol-4-yl)-5-fluorobenzyl)-8-cyclopentyl-7-((2-(trimethylsilyl)ethoxy)methyl)-7H-purine-6-carboxamide], the DC50 was 100 to 1000 nM.

With `Cn1c(C2CCCC2)nc2ncnc(C(=O)NCc3cc(F)cc(-c4cnn(-c5ccc(F)cc5)c4)c3)c21` [Example 55, 8-Cyclopentyl-N-(3-fluoro-5-(1-(4-fluorophenyl)-1H-pyrazol-4-yl)benzyl)-7-methyl-7H-purine-6-carboxamide], the DC50 is 100 to 1000 nM.

`O=C(NCc1cc(F)cc(-c2cnn(-c3ccc(F)cc3)c2)c1)c1nc(Cl)nc2nc(C3CCCC3)[nH]c12` [Example 61, 2-Chloro-8-cyclopentyl-N-(3-fluoro-5-(1-(4-fluorophenyl)-1H-pyrazol-4-yl)benzyl)-7H-purine-6-carboxamide]: the DC50 was in the range of 100 to 1000 nM.

As for `Cn1cc(-c2cc(F)cc(CNC(=O)c3ncnc4nc([C@@H]5CCCN5)[nH]c34)c2)cn1` [Example 62, (S)-N-(3-fluoro-5-(1-methyl-1H-pyrazol-4-yl)benzyl)-8-(pyrrolidin-2-yl)-7H-purine-6-carboxamide hydrochloride], the DC50 was in the range of 1000 to 10000 nM.

Take `Cn1cc(-c2cc(F)cc(CNC(=O)c3ncnc4nc([C@H]5CCCN5C(=O)OCc5ccccc5)[nH]c34)c2)cn1` [Example 64, Benzyl (R)-2-(6-((3-fluoro-5-(1-methyl-1H-pyrazol-4-yl)benzyl)carbamoyl)-7H-purin-8-yl)pyrrolidine-1-carboxylate]: the DC50 was 1000 to 10000 nM.

`Cn1cc(-c2cc(F)cc(CNC(=O)c3ncnc4nc([C@H]5CCCN5)[nH]c34)c2)cn1` [Example 65, (R)-N-(3-fluoro-5-(1-methyl-1H-pyrazol-4-yl)benzyl)-8-(pyrrolidin-2-yl)-7H-purine-6-carboxamide hydrochloride]: the DC50 lay within 1000 to 10000 nM.

As to `CC(C)N1CCC[C@H]1c1nc2ncnc(C(=O)NCc3cc(F)cc(-c4cnn(C)c4)c3)c2[nH]1` [Example 67, (S)-N-(3-fluoro-5-(1-methyl-1H-pyrazol-4-yl)benzyl)-8-(1-isopropylpyrrolidin-2-yl)-7H-purine-6-carboxamide], the DC50 lay in the range of 1000 to 10000 nM.

Consider `CN1CCC[C@@H]1c1nc2ncnc(C(=O)NCc3cccc(F)c3)c2[nH]1` [Example 68, (R)-N-(3-fluorobenzyl)-8-(1-methylpyrrolidin-2-yl)-7H-purine-6-carboxamide], for which the DC50 is 1000 to 10000 nM.

With `Cn1cc(-c2cc(F)cc(CNC(=O)c3ncnc4nc(C5CCN(C(=O)OCc6ccccc6)CC5)[nH]c34)c2)cn1` [Example 69, Benzyl 4-(6-((3-fluoro-5-(1-methyl-1H-pyrazol-4-yl)benzyl)carbamoyl)-7H-purin-8-yl)piperidine-1-carboxylate], the DC50 lay in the range of 100 to 1000 nM.

As for `Cn1cc(-c2cc(F)cc(CNC(=O)c3ncnc4nc(C5CCNCC5)[nH]c34)c2)cn1` [Example 70, N-(3-fluoro-5-(1-methyl-1H-pyrazol-4-yl)benzyl)-8-(piperidin-4-yl)-7H-purine-6-carboxamide hydrochloride], the DC50 lay in the range of 100 to 1000 nM.

Consider `CN1CCC(c2nc3ncnc(C(=O)NCc4cc(F)cc(-c5cnn(C)c5)c4)c3[nH]2)CC1` [Example 71, N-(3-fluoro-5-(1-methyl-1H-pyrazol-4-yl)benzyl)-8-(1-methylpiperidin-4-yl)-7H-purine-6-carboxamide], for which the DC50 is 1000 to 10000 nM.

Take `Cn1cc(-c2cc(F)cc(CNC(=O)c3ncnc4nc(CNC(=O)OCc5ccccc5)[nH]c34)c2)cn1` [Example 72, Benzyl ((6-((3-fluoro-5-(1-methyl-1H-pyrazol-4-yl)benzyl)carbamoyl)-7H-purin-8-yl)methyl)carbamate]: the DC50 lay in the range of 1000 to 10000 nM.

In the case of `Cn1cc(-c2cc(F)cc(CNC(=O)c3ncnc4nc(CN)[nH]c34)c2)cn1` [Example 73, 8-(Aminomethyl)-N-(3-fluoro-5-(1-methyl-1H-pyrazol-4-yl)benzyl)-7H-purine-6-carboxamide], the DC50 lay within 1000 to 10000 nM.

For the molecule `Cn1cc(-c2cc(F)cc(CNC(=O)c3ncnc4nc[nH]c34)c2)cn1` [Example 74, N-(3-fluoro-5-(1-methyl-1H-pyrazol-4-yl)benzyl)-7H-purine-6-carboxamide], the DC50 fell in the range of 1000 to 10000 nM.

As to `Cn1cc(-c2cc(F)cc(CNC(=O)c3ncnc4nc(C5CCN(C(=O)OCc6ccccc6)C5)[nH]c34)c2)cn1` (stereo not drawn) [Example 75, Benzyl 3-(6-((3-fluoro-5-(1-methyl-1H-pyrazol-4-yl)benzyl)carbamoyl)-7H-purin-8-yl)pyrrolidine-1-carboxylate], the DC50 lay in the range of 100 to 1000 nM.

As for `Cn1cc(-c2cc(F)cc(CNC(=O)c3ncnc4nc(C5CCNC5)[nH]c34)c2)cn1` (stereo not drawn) [Example 76, N-(3-fluoro-5-(1-methyl-1H-pyrazol-4-yl)benzyl)-8-(pyrrolidin-3-yl)-7H-purine-6-carboxamide hydrochloride], the DC50 was in the range of 1000 to 10000 nM.

As to `CN1CCC(c2nc3ncnc(C(=O)NCc4cc(F)cc(-c5cnn(C)c5)c4)c3[nH]2)C1` (stereo not drawn) [Example 79, N-(3-fluoro-5-(1-methyl-1H-pyrazol-4-yl)benzyl)-8-(1-methylpyrrolidin-3-yl)-7H-purine-6-carboxamide], the DC50 was 1000 to 10000 nM.

Staying with this test, now noted: values marked * in the table, mixed hypoxic condition (1% oxygen + CoCl2) for 24 hours, concentration range at which HIF-1α expression is reduced by 50% vs untreated control, read-out: IC50 HIF-1α, Hypoxia(24h).
With `O=C(NCc1cc(F)cc(-c2cnn(-c3ccc(F)cc3)c2)c1)c1ncnc2nc(C3CCOC3)[nH]c12` (stereo not drawn) [Example 89, N-(3-fluoro-5-(1-(4-fluorophenyl)-1H-pyrazol-4-yl)benzyl)-8-(tetrahydrofuran-3-yl)-7H-purine-6-carboxamide], the DC50 was in the range of 100 to 1000 nM.

With `C[C@@H](NC(=O)c1ncnc2nc(C3CCCC3)[nH]c12)c1cccc(-c2cnn(-c3ccc(F)cc3)c2)c1` [Example 90, (R)-8-cyclopentyl-N-(1-(3-(1-(4-fluorophenyl)-1H-pyrazol-4-yl)phenyl)ethyl)-7H-purine-6-carboxamide], the DC50 was in the range of 100 to 1000 nM.

For `C[C@H](NC(=O)c1ncnc2nc(C3CCCC3)[nH]c12)c1cccc(-c2cnn(-c3ccc(F)cc3)c2)c1` [Example 91, (S)-8-cyclopentyl-N-(1-(3-(1-(4-fluorophenyl)-1H-pyrazol-4-yl)phenyl)ethyl)-7H-purine-6-carboxamide], the DC50 was 1000 to 10000 nM.

On to `O=C(NCCc1cccc(-c2cnn(-c3ccc(F)cc3)c2)c1)c1ncnc2nc(C3CCCC3)[nH]c12` [Example 94, 8-Cyclopentyl-N-(3-(1-(4-fluorophenyl)-1H-pyrazol-4-yl)phenethyl)-7H-purine-6-carboxamide], for which the DC50 was in the range of 100 to 1000 nM.

For the molecule `O=C(NCc1ccc(F)c(-c2cnn(-c3ccc(F)cc3)c2)c1)c1ncnc2nc(C3CCCC3)[nH]c12` [Example 96, 8-Cyclopentyl-N-(4-fluoro-3-(1-(4-fluorophenyl)-1H-pyrazol-4-yl)benzyl)-7H-purine-6-carboxamide], the DC50 fell in the range of 100 to 1000 nM.

For the origin of these results see patent EP4567035A1, “NOVEL COMPOUND AS HYPOXIA-INDUCIBLE FACTOR 1(HIF-1) INHIBITOR OR VASCULAR ENDOTHELIAL GROWTH FACTOR (VEGF) INHIBITOR, AND PHARMACEUTICAL COMPOSITION COMPRISING SAME” (Nextgen Bioscience Co., Ltd., priority 2022, dated 2024).
